Test results: ChEMBL document CHEMBL1154508, “Discovery of GSK345931A: An EP(1) receptor antagonist with efficacy in preclinical models of inflammatory pain” (Bioorg Med Chem Lett, 2009)

Columns and labels:
[1] = Drug level in blood of sub-chronic rat joint pain efficacy model satellite animal group at 20 mg/kg bid measured on day 1 after 1 hr post dose; format: ADME, organism-based; set-up: dose 20 mg/kg; details: read-out: Drug uptake
[2] = Drug level in brain of sub-chronic rat joint pain efficacy satellite animal group model at 5 mg/kg bid measured on day 5 after 1 hr post dose; format: ADME, organism-based; set-up: dose 5 mg/kg; details: read-out: Drug uptake
Thromboxane A2 receptor = molecular target: T1, Thromboxane A2 receptor (Homo sapiens, UniProt P21731); test: Activity at TP receptor by FLIPR method
T1 sequence (P21731 whole entry): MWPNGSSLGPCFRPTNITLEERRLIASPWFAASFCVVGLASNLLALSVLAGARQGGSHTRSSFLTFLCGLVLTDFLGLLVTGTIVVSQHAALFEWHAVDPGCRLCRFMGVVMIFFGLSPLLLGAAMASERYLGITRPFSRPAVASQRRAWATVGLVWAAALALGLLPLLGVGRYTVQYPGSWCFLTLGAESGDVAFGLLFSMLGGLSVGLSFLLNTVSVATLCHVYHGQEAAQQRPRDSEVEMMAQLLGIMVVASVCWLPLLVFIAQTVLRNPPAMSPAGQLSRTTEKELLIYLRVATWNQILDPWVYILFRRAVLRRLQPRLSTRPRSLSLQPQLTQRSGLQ

[3] = molecular target: Prostaglandin F2-alpha receptor (Homo sapiens, UniProt P43088); test: Activity at PGF2alpha receptor by FLIPR method
Prostaglandin F2-alpha receptor, sequence (P43088 whole entry): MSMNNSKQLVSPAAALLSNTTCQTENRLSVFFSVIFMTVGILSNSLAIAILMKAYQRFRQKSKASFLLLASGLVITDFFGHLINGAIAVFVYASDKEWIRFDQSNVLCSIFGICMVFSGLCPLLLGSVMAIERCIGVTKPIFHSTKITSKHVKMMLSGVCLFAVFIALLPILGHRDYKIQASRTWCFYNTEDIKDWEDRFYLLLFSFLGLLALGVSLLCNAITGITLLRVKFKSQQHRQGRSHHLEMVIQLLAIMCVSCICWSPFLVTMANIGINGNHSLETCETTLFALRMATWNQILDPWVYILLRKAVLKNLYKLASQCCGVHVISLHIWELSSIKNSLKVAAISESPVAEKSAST

[4] = molecular target: T2, Peroxisome proliferator-activated receptor gamma (Homo sapiens, UniProt P37231); test: Activity at PPARgamma
T2 sequence (P37231 whole entry): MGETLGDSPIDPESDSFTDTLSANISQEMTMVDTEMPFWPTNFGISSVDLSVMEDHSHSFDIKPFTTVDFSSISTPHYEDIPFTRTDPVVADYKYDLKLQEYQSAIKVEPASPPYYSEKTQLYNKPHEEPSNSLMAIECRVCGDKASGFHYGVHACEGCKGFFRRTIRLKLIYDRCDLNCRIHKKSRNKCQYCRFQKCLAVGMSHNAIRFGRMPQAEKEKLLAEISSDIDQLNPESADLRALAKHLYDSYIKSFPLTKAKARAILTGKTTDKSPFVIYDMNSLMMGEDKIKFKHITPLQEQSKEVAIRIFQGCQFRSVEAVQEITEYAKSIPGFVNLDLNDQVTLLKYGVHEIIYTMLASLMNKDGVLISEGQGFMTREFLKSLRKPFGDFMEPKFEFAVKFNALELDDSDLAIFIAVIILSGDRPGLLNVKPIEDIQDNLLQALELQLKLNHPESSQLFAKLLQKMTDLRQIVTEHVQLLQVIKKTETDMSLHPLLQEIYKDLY

[5] = molecular target: T3, Prostaglandin E2 receptor EP1 subtype (Homo sapiens, UniProt P34995); test: Binding affinity to human EP1 receptor
T3 sequence (P34995 whole entry): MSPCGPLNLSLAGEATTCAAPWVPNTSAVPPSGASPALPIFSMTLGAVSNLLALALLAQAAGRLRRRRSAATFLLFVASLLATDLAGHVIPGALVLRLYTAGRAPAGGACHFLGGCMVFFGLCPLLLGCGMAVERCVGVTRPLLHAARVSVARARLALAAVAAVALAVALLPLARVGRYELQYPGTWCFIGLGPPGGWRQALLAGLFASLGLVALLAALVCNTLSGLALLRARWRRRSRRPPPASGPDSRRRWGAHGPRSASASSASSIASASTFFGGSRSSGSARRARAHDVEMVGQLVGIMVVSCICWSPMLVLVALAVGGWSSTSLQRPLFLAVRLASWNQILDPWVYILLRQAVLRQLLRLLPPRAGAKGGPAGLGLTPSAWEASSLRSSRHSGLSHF

[6] = Partition ratio of fraction unbound in rat brain to blood; format: ADME, tissue-based
[7] = Blood clearance in rat at 1 mg/kg, iv; format: ADME, organism-based; set-up: dose 1 mg/kg, route intravenous
[8] = Aqueous solubility in water after 2 hrs; format: physicochemical
[9] = Aqueous solubility in water after 24 hrs; format: physicochemical
[10] = Solubility in fasted state simulated intestinal fluid after 24 hrs; format: physicochemical
[11] = Solubility in fed state simulated intestinal fluid after 2 hrs; format: physicochemical
[12] = Volume of distribution at steady state in rat at 1 mg/kg, iv; format: ADME, organism-based; set-up: dose 1 mg/kg, route intravenous; details: in vivo, read-out: Vdss
[13] = Oral bioavailability in rat at 3 mg/kg; format: ADME, organism-based; details: in vivo
[14] = Blood clearance in cynomolgus monkey at 1 mg/kg, iv; format: ADME, organism-based, Macaca fascicularis; set-up: dose 1 mg/kg, route intravenous
[15] = Oral bioavailability in cynomolgus monkey at 3 mg/kg; format: ADME, organism-based, Macaca fascicularis; details: in vivo
Liver microsomes = test: Metabolic stability assessed as intrinsic clearance per gram of human liver microsomes; format: ADME, Microsome
[16] = Drug level in mouse brain at 3 mg/kg, po after 0.5 hrs; format: ADME, organism-based; set-up: dose 3 mg/kg, route oral; details: read-out: Drug uptake
[17] = Ratio of drug level in brain to blood in mouse at 3 mg/kg, po after 0.5 hr; format: ADME, organism-based; set-up: dose 3 mg/kg, route oral
[18] = Drug level in rat blood at 0.28 mg/kg/hr, iv for 18 hrs; format: ADME, organism-based; set-up: route intravenous; details: read-out: Drug uptake
[19] = Drug level in brain of complete Freund's adjuvant-induced rat inflammatory pain model at 1 mg/kg, po after 1 hr; format: ADME, organism-based; set-up: dose 1 mg/kg, route oral; details: read-out: Drug uptake
[20] = Drug level in blood of complete Freund's adjuvant-induced rat inflammatory pain model at 2 mg/kg, po after 1 hr; format: ADME, organism-based; set-up: dose 2 mg/kg, route oral; details: read-out: Drug uptake
[21] = Drug level in blood of complete Freund's adjuvant-induced rat inflammatory pain model at 3 mg/kg, po after 1 hr; format: ADME, organism-based; set-up: dose 3 mg/kg, route oral; details: read-out: Drug uptake
[22] = Drug level in brain of sub-chronic rat joint pain efficacy model treatment group at 5 mg/kg bid measured on day 5 after 1 hr post dose; format: ADME, organism-based; set-up: dose 5 mg/kg; details: read-out: Drug uptake
[23] = Drug level in brain of sub-chronic rat joint pain efficacy model treatment group at 20 mg/kg bid measured on day 5 after 1 hr post dose; format: ADME, organism-based; set-up: dose 20 mg/kg; details: read-out: Drug uptake
[24] = molecular target: T4, Peroxisome proliferator-activated receptor delta (Homo sapiens, UniProt Q03181); test: Binding affinity PPARdelta
T4 sequence (Q03181 whole entry): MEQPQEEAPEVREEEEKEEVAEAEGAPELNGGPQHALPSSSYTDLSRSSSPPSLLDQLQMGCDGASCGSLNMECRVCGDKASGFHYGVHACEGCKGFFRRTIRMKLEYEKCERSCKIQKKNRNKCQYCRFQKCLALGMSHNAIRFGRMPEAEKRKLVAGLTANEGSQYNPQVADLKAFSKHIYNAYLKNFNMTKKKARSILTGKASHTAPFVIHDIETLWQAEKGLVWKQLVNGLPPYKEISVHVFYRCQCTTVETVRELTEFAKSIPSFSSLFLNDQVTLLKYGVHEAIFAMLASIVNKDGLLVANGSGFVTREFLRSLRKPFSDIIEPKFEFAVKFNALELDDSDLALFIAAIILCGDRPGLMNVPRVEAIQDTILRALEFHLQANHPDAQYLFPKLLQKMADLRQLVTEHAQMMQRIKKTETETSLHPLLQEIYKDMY

[25] = molecular target: Voltage-gated inwardly rectifying potassium channel KCNH2 (Homo sapiens, UniProt Q12809); test: Displacement of [3H]dofetilide from human ERG receptor
Voltage-gated inwardly rectifying potassium channel KCNH2, sequence (Q12809 whole entry): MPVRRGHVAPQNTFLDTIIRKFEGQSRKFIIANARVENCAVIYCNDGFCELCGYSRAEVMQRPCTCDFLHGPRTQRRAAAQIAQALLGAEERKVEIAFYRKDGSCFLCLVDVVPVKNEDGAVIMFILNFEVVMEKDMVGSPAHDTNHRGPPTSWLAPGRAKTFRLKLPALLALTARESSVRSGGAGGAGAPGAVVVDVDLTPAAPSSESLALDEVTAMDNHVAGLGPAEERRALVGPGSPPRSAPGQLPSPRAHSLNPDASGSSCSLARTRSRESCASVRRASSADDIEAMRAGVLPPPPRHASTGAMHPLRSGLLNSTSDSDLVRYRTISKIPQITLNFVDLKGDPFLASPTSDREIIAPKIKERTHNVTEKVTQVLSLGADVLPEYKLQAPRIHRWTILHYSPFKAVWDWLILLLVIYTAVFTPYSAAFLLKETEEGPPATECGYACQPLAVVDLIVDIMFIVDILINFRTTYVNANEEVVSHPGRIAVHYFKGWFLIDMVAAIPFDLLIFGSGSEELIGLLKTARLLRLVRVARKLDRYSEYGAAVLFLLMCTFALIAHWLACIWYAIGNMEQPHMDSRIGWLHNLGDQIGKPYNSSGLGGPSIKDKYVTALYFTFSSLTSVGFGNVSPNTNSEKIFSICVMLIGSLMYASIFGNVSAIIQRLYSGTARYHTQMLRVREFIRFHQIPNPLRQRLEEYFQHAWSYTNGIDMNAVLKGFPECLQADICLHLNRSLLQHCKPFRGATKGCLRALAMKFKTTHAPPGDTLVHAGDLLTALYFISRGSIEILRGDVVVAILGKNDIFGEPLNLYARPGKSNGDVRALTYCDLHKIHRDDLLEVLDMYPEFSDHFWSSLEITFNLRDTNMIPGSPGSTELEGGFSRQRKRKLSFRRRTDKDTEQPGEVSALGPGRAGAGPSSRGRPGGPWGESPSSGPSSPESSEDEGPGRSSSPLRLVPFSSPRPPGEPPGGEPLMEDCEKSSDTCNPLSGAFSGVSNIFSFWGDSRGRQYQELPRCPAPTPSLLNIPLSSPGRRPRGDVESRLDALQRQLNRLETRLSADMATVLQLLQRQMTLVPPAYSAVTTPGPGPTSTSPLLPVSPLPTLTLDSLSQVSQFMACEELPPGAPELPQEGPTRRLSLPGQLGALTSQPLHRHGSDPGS

[26] = molecular target: T3, Prostaglandin E2 receptor EP1 subtype; test: Antagonist activity at EP1 receptor by FLIPR calcium mobilization assay

concentration at 1 h [1]: 25.9 µM
concentration at 1 h [2]: 822 nM
IC50 (Thromboxane A2 receptor): 1580 nM
IC50 [3]: > 10 µM
EC50 [4]: 3.98 µM
IC50 [5]: 16 nM
Kbb [6]: 0.93
clearance [7]: 11 mL/min/kg
solubility at 2 h [8]: 499 µg/mL
solubility at 24 h [9]: 612 µg/mL
solubility at 24 h [10]: 1050 µg/mL
solubility at 2 h [11]: 1220 µg/mL
Vd [12]: 1.9 L/kg
bioavailability [13]: 95%
clearance [14]: 26 mL/min/kg
bioavailability [15]: 34%
CL (Liver microsomes): 1.9 mL/min/g
concentration at 0.5 h [16]: 277 nM
Kp at 0.5 h [17]: 0.24
concentration at 18 h [18]: 1660 nM
concentration at 1 h [19]: 317 nM
concentration at 1 h [20]: 2140 nM
concentration at 1 h [21]: 3.33 µM
concentration at 1 h [22]: 1070 nM
concentration at 1 h [23]: 3.21 µM
Ki [24]: > 20 µM
Ki [26]: 2.51 nM
Structure (SMILES): CC(C)COc1ccc(Cl)cc1-c1ccccc1-c1cccc(C(=O)[O-])n1.[Na+]
IC50 [25]: > 31.6 µM
